Values of other authors as cited in patent US20250208121A1, “MAMMALIAN PER- AND POLYFLUORINATED-ALKYL COMPOUND (PFAS) BINDING PROTEINS AND USES THEREOF” (Allonnia, LLC, priority 2023, published 2025).

Conditions: in humans; previous research

Row | SMILES | half-life
1 | O=S(=O)(O)C(F)(F)C(F)(F)C(F)(F)C(F)(F)C(F)(F)C(F)(F)C(F)(F)C(F)(F)F [PFOS, perfluorooctanesulfonic acid] | approximately 5.4 years
2 | O=C(O)C(F)(F)C(F)(F)C(F)(F)C(F)(F)C(F)(F)C(F)(F)C(F)(F)F [PFOA, perfluorooctanoic acid] | ~3.8 years
